For assay [1], the system named is plaque-forming cells (PFC). Put plainly: Inhibiting effect on plaque-forming cells (PFC). Format: cell-based, Balb/c strain male mice. The conditions noted are these: 120 h; concentration: 10^-5 M; mouse spleen cells, 5 days culture; read-out: PFC inhibition rate (%). The source says:
The method devised by Jerne, et al. [Science, Vol. 140, p.405 (1963)] was followed while referring to the method of Yamamoto, et al. [Drugs Exptl. Clin. Res., Vol. 8, p.5 (1982)]. That is, Balb/c strain male mice (7-week-old/SLC) were sensitized with 1×10^8 sheep erythrocytes (manufactured by Bio Test Research Institute), and the spleen was extirpated on the 6th or 7th day. The erythrocytes were removed using ACT solution [Tris (hydroxymethyl) aminomethane-NH4 Cl solution] from the spleen cells, and were washed with RPMI-1640 medium (manufactured by Nissui Seiyaku Co.) three times. Suspensions of the obtained cells (1×10^7) and the sheep erythrocytes (5×10^6) were suspended with RPMI-1640 medium containing the test compound, 2-mercaptoethanol (5×10^-5 M), 10% bovine fetal serum (manufactured by Gibco Co.), streptomycin and penicillin. The obtained cell suspension was distributed into a 24-well microculture plate, and cultured in a carbon dioxide gas incubator at 37° C. for 5 days.
After the completion of culturing, the cells were transferred to a plastic test tube. They are centrifuged at 2000 rpm and the supernatant was removed. Then, the cells were further suspended in 1 ml of RPMI-1640. The cell suspension was charged, together with the sheep erythrocytes and the guinea pig complements, into a Cunningham chamber (manufactured by Takahashi Giken Co.), by the method of Cunningham, et al. [Immunology, Vol. 14, p.599 (1968)]. The cells were incubated at 37° C. for 1-2 hours, and then a direct PFC count was determined.

For assay [2], the system named is guinea pig trachea. The experiment in a line: Passive Schultz-Dale reaction (relaxation of ovalbumin-induced contraction of passively sensitized trachea). Also noted: species or system male Hartley guinea pigs. The settings on record: Cavia porcellus; concentration causing 50% relaxation; ovalbumin 1 μg/ml, cumulative addition; isolated trachea, 37° C. The procedure:
Rabbit anti-OA serum prepared in advance by the method of Kohda, et al. [Folia Pharmacol. Japan, Vol. 66, p. 237 (1970)], was intraperitoneally administered to male Hartley guinea pigs weighing 350-500 g for passive sensitization, and 24 hours later tracheas of the animals were removed, and used for the following test. The tracheas were cut into zig-zag strips by the method of Emmerson and Mackay [J. Pharm. Pharmacol., Vol. 31, p.798 (1979)], were suspended in Krebs-Hensleit solution at 37° C. under aeration of a gas mixture of 95% oxygen and 5% carbon dioxide, and equilibrated for about 1 hour. The antigen, ovalbumin, was added to a bath (final concentration; 1 μg/ml). The contraction was recorded using an isotonic transducers (TD-112S; Nihon Koden Kogyo Co.) connected to a recorder (TYPE 3066; Yokogawa Hokushin Electric). Following the contraction curves reached a plateau, a test compound was cumulatively added in order to calculate the concentration causing 50% relaxation (IC50) which was determined from least-squares regression analysis.

On to `CCCCn1c(=O)c2ncn(C)c2c2ccsc21` [Compound 34, 5-n-butyl-1-methylthieno [2,3-b]-1H-imidazo [4,5-d]pyridine-4 (5H)-one], for which the inhibition at 10 µM in assay [1] is -16.5%. In addition, the IC50 in assay [2] was 8.98 µM.

With `CCCCn1c(=O)c2ncn(Cc3ccccc3)c2c2ccsc21` [Compound 35, 1-benzyl-5-n-butylthieno [2,3-b]-1H-imidazo [4,5-d]pyridine-4 (5H)-one], the inhibition at 10 µM in assay [1] was -3.8%. Besides, the half-inhibitory concentration (IC50) in assay [2] was 6.06 µM.

As for `CCCCn1c(=O)c2c(ncn2C)c2sccc21` [Compound 2, 5-n-butyl-3-methylthieno[3,2-b]-3H-imidazo[4,5-d]pyridine-4(5H)-one], the inhibition at 10 µM in assay [1] was determined as 43.3%. Moreover, in assay [2], the IC50 worked out at 12.2 µM. Regarding `CCn1c(=O)c2ncn(Cc3ccccc3)c2c2sccc21` [Compound 20, 1-benzyl-5-ethylthieno [3,2-b]-1H-imidazo [4,5-d]pyridine-4 (5H)-one], the half-maximal inhibitory concentration (IC50) in assay [2] was determined as 3.41 µM. Consider `CCCn1c(=O)c2c(ncn2Cc2ccccc2)c2sccc21` [Compound 13, 3-benzyl-5-n-propylthieno [3,2-b]-3H-imidazo [4,5-d]pyridine-4(5H)-one], for which, in assay [1], the inhibition at 10 µM came to 68.3%. On to `CCCn1c(=O)c2ncn(C)c2c2sccc21` [Compound 14, 1-methyl-5-n-propylthieno [3,2-b]-1H-imidazo [4,5-d]pyridine-4 (5H)-one], for which the IC50 in assay [2] was 6.56 µM. Turning to `CC(C)n1c(=O)c2c(ncn2C)c2sccc21` [Compound 7, 5-isopropyl-3-methylthieno[3,2-b]-3H-imidazo[4,5-d]pyridine-4(5H)-one], the inhibition at 10 µM in assay [1] turned out to be 29.5%. The IC50 in assay [2] came out at 3.53 µM. Consider `CC(C)n1c(=O)c2[nH]cnc2c2sccc21` [Compound 6, 5-isopropylthieno [3,2-b]-3H-imidazo [4,5-d]pyridine-4 (5H)-one], for which, in assay [1], the inhibition at 10 µM came out at 8.8%. Also, the IC50 in assay [2] was found to be 2.67 µM.

`CCn1c(=O)c2c(ncn2C)c2sccc21` [Compound 17, 5-ethyl-3-methylthieno[3,2-b]-3H-imidazo[4,5-d]pyridine-4 (5H)-one]: the inhibition at 10 µM in assay [1] stood at 47%. For the same compound, the IC50 in assay [2] is 10.5 µM.

Turning to `CCCn1c(=O)c2ncn(Cc3ccccc3)c2c2ccsc21` [Compound 39, 1-benzyl-5-n-propylthieno [2,3-b]-1H-imidazo [4,5-d]pyridine-4 (5H)-one], the concentration for half-maximal inhibition (IC50) in assay [2] stood at 2.39 µM. For the compound `CCCCn1c(=O)c2c(ncn2Cc2ccccc2)c2ccsc21` [Compound 33, 3-benzyl-5-n-butylthieno [2,3-b]-3H-imidazo [4,5-d]pyridine-4 (5H)-one], in assay [1], the inhibition at 10 µM was found to be 94.8%. Besides, the IC50 in assay [2] stood at 36.9 µM. For `CCCn1c(=O)c2c(ncn2C)c2sccc21` [Compound 12, 3-methyl-5-n-propylthieno [3,2-b]-3H-imidazo [4,5-d]pyridine-4(5H)-one], the inhibition at 10 µM in assay [1] was 60.4%. Besides, the IC50 in assay [2] is 2.95 µM.

With `CCCCn1c(=O)c2c(ncn2Cc2ccccc2)c2sccc21` [Compound 3, 3-benzyl-5-n-butylthieno [3,2-b]-3H-imidazo [4,5-d]pyridine-4 (5H)-one], in assay [1], the inhibition at 10 µM was 92.4%. For the compound `CCn1c(=O)c2[nH]cnc2c2sccc21` [Compound 16, 5-ethylthieno[3,2-b]-3H-imidazo[4,5-d]pyridine-4(5H)one], the inhibition at 10 µM in assay [1] stood at 83.1%. In addition, in assay [2], the IC50 came out at 0.657 µM.

As for `CCCCn1c(=O)c2[nH]cnc2c2ccsc21` [Compound 31, 5-n-butylthieno [2,3-b]-3H-imidazo [4,5-d]pyridine-4 (5H) one], the inhibition at 10 µM in assay [1] was -10.9%. Moreover, the IC50 in assay [2] worked out at 0.416 µM. On to `CCn1c(=O)c2ncn(C)c2c2sccc21` [Compound 19, 5-ethyl-1-methylthieno [3,2-b]-1H-imidazo [4,5-d]pyridine-4 (5H)-one], for which the IC50 in assay [2] amounted to 9.98 µM. As to `CCCn1c(=O)c2[nH]cnc2c2sccc21` [Compound 11, 5-n-propylthieno [3,2-b]-3H-imidazo [4,5-d]pyridine-4(5H)-one], the IC50 in assay [2] was found to be 0.922 µM. On to `CCCCn1c(=O)c2[nH]cnc2c2sccc21` [Compound 1, 5-n-butylthieno[3,2-b]-3H-imidazo[4,5-d]pyridine-4(5H)-one], for which the inhibition at 10 µM in assay [1] stood at 39.3%. Further, the 50% inhibitory concentration (IC50) in assay [2] is 4.63 µM. `CCCCn1c(=O)c2c(ncn2C)c2ccsc21` [Compound 32, 5-n-butyl-3-methylthieno [2,3-b]-3H-imidazo [4,5-d]pyridine-4 (5H)-one]: the inhibition at 10 µM in assay [1] is 16.5%. Moreover, the IC50 in assay [2] turned out to be 0.854 µM. In the case of `CC(C)n1c(=O)c2ncn(C)c2c2sccc21` [Compound 9, 5-isopropyl-1-methylthieno[3,2-b]-1H-imidazo[4,5-d]pyridine-4(5H)-one], in assay [1], the inhibition at 10 µM was found to be 23.8%. The IC50 in assay [2] stood at 7.29 µM.

Source of the values: patent US5342843A, “Thienoimidazoppyridone derivatives” (Kyowa Hakko Kogyo Co., Ltd., priority 1991, dated 1994).
